Reference: patent US20090286803A1, “COMBINATION COMPRISING A) A PYRIMIDYLAMINOBENZAMIDE COMPOUND, AND B) A THR315LLE KINASE INHIBITOR” (priority 2006, published 2009)

How the values were obtained:
[1] = test system: mutant forms of Bcr-Abl; details: 33 mutant forms evaluated
[2] = test system: Thr315lle Bcr-Abl; details: only mutant of the 33 not inhibited

## Cc1cn(-c2cc(NC(=O)c3ccc(C)c(Nc4nccc(-c5cccnc5)n4)c3)cc(C(F)(F)F)c2)cn1 [AMN107, 4-Methyl-3-[[4-(3-pyridinyl)-2-pyrimidinyl]amino]-N-[5-(4-methyl-1H-imidazol-1-yl)-3-(trifluoromethyl)phenyl] benzamide]
[1]
  mutant forms of Bcr-Abl inhibited, out of those currently evaluated: 32 of 33
[2]
  sensitivity of the Thr315lle mutant: resistant
